{"source": "patent US20100273783A1", "about": "“Compositions and Methods for Treating and Preventing Overactive Bladder and Conditions Associated Therewith” (OPTMED, INC., priority 2009, published 2010)", "key": {"[1]": {"biological_target": "T1, M-1 receptors (Homo sapiens, UniProt P11229)", "T1 sequence (P11229 1-460)": "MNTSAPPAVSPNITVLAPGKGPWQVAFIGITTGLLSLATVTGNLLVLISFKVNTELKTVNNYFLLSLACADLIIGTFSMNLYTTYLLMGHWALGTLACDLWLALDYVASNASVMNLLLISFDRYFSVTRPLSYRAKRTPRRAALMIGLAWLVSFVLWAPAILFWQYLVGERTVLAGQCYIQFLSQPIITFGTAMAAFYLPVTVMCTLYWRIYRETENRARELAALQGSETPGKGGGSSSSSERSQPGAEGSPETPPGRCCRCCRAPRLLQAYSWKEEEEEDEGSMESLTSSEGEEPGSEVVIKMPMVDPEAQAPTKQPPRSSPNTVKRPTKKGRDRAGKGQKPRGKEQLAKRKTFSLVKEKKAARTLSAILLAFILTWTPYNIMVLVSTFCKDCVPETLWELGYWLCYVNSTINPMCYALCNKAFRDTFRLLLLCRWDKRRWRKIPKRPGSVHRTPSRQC", "conditions": "cited from earlier work"}, "[2]": {"conditions": "cited from earlier work; for adverse effects stated in the background text: no dose given"}, "[3]": {"conditions": "in vivo; cited from earlier work"}, "[4]": {"system": "anesthetized rats", "assay": "Cystometries (isovolumetric bladder contractions) in anesthetized rats", "type": "in vivo", "description": "Effect of diazepam administered intravenously and intravaginally on cystometries in anesthetized rats.\nMethods: Female rats were anesthetized with urethane (1.3 g/kg intraperitoneally) given as a divided dose of 80% initially and 20% 15 minutes later. Body temperature was maintained at 37±2° C. throughout the experiment. A catheter was inserted into the bladder through the urethra. Then, the urethra was ligated at the level of the urinary meatus. After an abdominal incision, the ureters were also ligated. The jugular vein was catheterized to allow administration of test compounds. The bladder catheter was connected via a T-tube to a strain gauge to measure intravesicular pressure. Isovolumetric bladder contractions were induced by stepwise injections of physiological saline at room temperature (100 μl every 5 min) until stable rhythmic bladder contractions occurred. After stabilization and a control period of at least 30 min, characterized by stable and reproducible bladder contractions (used as basal values), test substance or vehicle was administered i.v. (as a bolus under a volume of 200 μl) or i.vag. (under a volume of 100 μl using a syringe). The drug effects were evaluated for 1 hour following the end of administration. Each animal received one dose of one test substance."}, "[5]": {"system": "overactive bladder (OAB)", "assay": "Case reports of subjects with OAB treated with local diazepam", "type": "in vivo, human", "description": "A person had been suffering from symptoms consistent with OAB for several months. Following a confirmatory diagnosis of OAB, the subject was instructed to use vaginal suppositories containing 20 mg of diazepam in a glycerine base three times a day. […] The subject continues to do well on a maintenance dose of 20 mg once or twice a day.\nA person had been suffering from symptoms consistent with OAB for several months. A diagnosis of OAB was confirmed by an urologist. A nurse then administered intraurethrally to the subject 2 ml of a gel formulation containing 10 mg/ml of diazepam in 2% methylcellulose, providing a total dose of 20 mg of diazepam. […] This subject is able to treat themself at home using the same type of formulation and the same route of administration up to 3 times per day as needed.\nHis symptoms were not relieved with high doses of oral diazepam but were well-controlled by intraurethral instillations of 2 ml of diazepam in a gel formulation containing 10 mg/ml of diazepam in hydroethylcellulose, providing a total of 20 mg of diazepam administered at bedtime.\nA person with advanced dementia suffered from OAB symptoms including nocturia and urge incontinence. Despite the use of incontinence pads, the subject would frequently arise throughout the night without requesting assistance to go the bathroom. This led to numerous falls."}, "[6]": {"conditions": "intravaginal, vs basal values, through 30 minutes post administration"}, "[7]": {"conditions": "Example 6, intraurethral 1 ml gel 20 mg/ml in 3% hydroxyethylcellulose three times per day"}}, "note": "Read-outs that look alike come from different tables or passages of the source.", "data": [{"compound": "NC(=O)C(c1ccccc1)(c1ccccc1)[C@@H]1CCN(CCc2ccc3c(c2)CCO3)C1", "note": "[darifenacin]", "values": [{"measurement": "affinity for M-1 receptors", "setting": "[1]", "value": "reduced affinity for M-1 receptors"}, {"measurement": "Adverse Events", "setting": "[2]; 7.5 mg per day, constipation", "value": "constipation"}, {"measurement": "Adverse Events", "setting": "[2]; 7.5 mg per day, dry mouth", "value": "dry mouth"}, {"measurement": "Adverse Events", "setting": "[2]; 15 mg per day, constipation", "value": "constipation"}, {"measurement": "Adverse Events", "setting": "[2]; 15 mg per day, dry mouth", "value": "dry mouth"}, {"measurement": "Adverse Events", "setting": "[2]; 15 mg per day, dyspepsia", "value": "dyspepsia"}]}, {"compound": "CC(C)C(=O)Oc1ccc(CO)cc1[C@H](CCN(C(C)C)C(C)C)c1ccccc1", "note": "[fesoterodine]", "values": [{"measurement": "Adverse Events", "setting": "[2]; 4 mg or 8 mg QD, constipation", "value": "constipation"}, {"measurement": "Adverse Events", "setting": "[2]; 4 mg or 8 mg QD, dry mouth", "value": "dry mouth"}, {"measurement": "Adverse Events", "setting": "[2]; 4 mg or 8 mg QD, urinary tract infection", "value": "urinary tract infection"}, {"measurement": "adverse effects stated in the background text", "setting": "[2]", "value": "associated with constipation, dry mouth and sometimes urinary tract infection"}]}, {"compound": "CCN(CC)CC#CCOC(=O)C(O)(c1ccccc1)C1CCCCC1", "note": "(stereo not drawn) [oxybutynin chloride]", "values": [{"measurement": "Adverse Events", "setting": "[2]; 3.9 mg transdermal per day, dry mouth", "value": "dry mouth"}, {"measurement": "Adverse Events", "setting": "[2]; 3.9 mg transdermal per day, erythema", "value": "erythema"}, {"measurement": "Adverse Events", "setting": "[2]; 3.9 mg transdermal per day, pruritis", "value": "pruritis"}, {"measurement": "adverse effects stated in the background text", "setting": "[2]", "value": "highly associated with adverse cognitive effects and effects on sleep architecture and quality"}]}, {"compound": "O=C(O[C@H]1C[C@H]2CC[C@@H](C1)[N+]21CCCC1)C(O)(c1ccccc1)c1ccccc1", "note": "[trospium chloride]", "values": [{"measurement": "fraction excreted completely active", "setting": "[3]", "value": 60, "unit": "%"}, {"measurement": "Adverse Events", "setting": "[2]; 20 mg × 2 per day, constipation", "value": "constipation"}, {"measurement": "Adverse Events", "setting": "[2]; 20 mg × 2 per day, dry mouth", "value": "dry mouth"}]}, {"compound": "CN1C(=O)CN=C(c2ccccc2)c2cc(Cl)ccc21", "note": "[diazepam, 7-chloro-1,3-dihydro-1-methyl-5-phenyl-2H-1,4-benzodiazepin-2-one]", "values": [{"measurement": "reductions in micturition frequency and amplitude, intravaginal compared with intravenous", "setting": "[4]; intravaginal vs intravenous administration", "value": "comparable to those achieved by intraveneous administration"}, {"measurement": "micturition amplitude (threshold for voiding)", "setting": "[4]; [6]", "value": "significant reductions"}, {"measurement": "micturition frequency", "setting": "[4]; [6]", "value": "significant reductions"}, {"measurement": "symptoms of urgency, frequency and incontinence", "setting": "[5]; Example 3, person, vaginal suppositories 20 mg in glycerine base three times a day", "value": "greatly reduced"}, {"measurement": "cognitive impairment", "setting": "[5]; Example 3, vaginal suppositories 20 mg in glycerine base three times a day", "value": "No cognitive impairment was observed or reported"}, {"measurement": "cognitive impairment", "setting": "[5]; Example 4, intraurethral 2 ml gel 10 mg/ml in 2% methylcellulose (20 mg)", "value": "without causing any observable cognitive impairment"}, {"measurement": "OAB symptoms", "setting": "[5]; Example 4, person, intraurethral 2 ml gel 10 mg/ml in 2% methylcellulose (20 mg)", "value": "reduced OAB symptoms significantly"}, {"measurement": "adverse effects", "setting": "[5]; Example 5, intraurethral 2 ml gel 10 mg/ml (20 mg) at bedtime", "value": "did not suffer any adverse effects"}, {"measurement": "symptoms (nocturia, nighttime urinary incontinence)", "setting": "[5]; Example 5, intraurethral 2 ml gel 10 mg/ml in hydroethylcellulose (20 mg) at bedtime", "value": "well-controlled"}, {"measurement": "symptoms (nocturia, nighttime urinary incontinence)", "setting": "[5]; Example 5, person, high doses of oral diazepam", "value": "not relieved"}, {"measurement": "adverse effects", "setting": "[5]; [7]", "value": "no apparent adverse effects"}, {"measurement": "cognitive impairment", "setting": "[5]; [7]", "value": "without causing cognitive impairment"}, {"measurement": "daytime urgency", "setting": "[5]; [7]", "value": "reduced daytime urgency"}, {"measurement": "nighttime falls", "setting": "[5]; [7]", "value": "near-absence of nighttime falls"}, {"measurement": "nocturia (sleep through the night)", "setting": "[5]; [7]", "value": "able to sleep in bed throughout the night without arising to urinate"}, {"measurement": "cognitive impairments", "setting": "[5]; Example 6, person, oral antimuscarinic and oral diazepam", "value": "led to cognitive impairments which increased the number of falls from bed"}]}]}
